Measurements taken from patent US20230373985A1 (Origenis Gmbh, priority 2020, published 2023).

What was measured:
[1] = target: T1, wt human TYK2, catalytic site (Homo sapiens, UniProt P29597); assay: HTRF KinEASE assay, TYK2; assay type: biochemical; details: 1 μM ATP; read-out: IC50, Activity Toward TYK2
T1 construct: wt human TYK2, catalytic site; purchased SignalChem
T1 sequence (P29597 897-1176 limits assumed): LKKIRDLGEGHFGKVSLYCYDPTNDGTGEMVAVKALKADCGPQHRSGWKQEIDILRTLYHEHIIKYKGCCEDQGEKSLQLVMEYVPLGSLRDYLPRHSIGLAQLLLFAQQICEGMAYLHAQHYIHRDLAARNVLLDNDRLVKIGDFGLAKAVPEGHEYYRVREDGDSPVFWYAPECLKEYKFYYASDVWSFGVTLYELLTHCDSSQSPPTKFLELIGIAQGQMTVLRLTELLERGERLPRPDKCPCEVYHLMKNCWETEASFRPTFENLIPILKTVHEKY
How it was run: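 HTRF KinEASE-TK readout with 1 μM biotinylated TK substrate in 1× kinase buffer, ≥30 min at room temperature, then antibody/streptavidin-XL665 detection for 60 min. TYK2 at 2 nM with 1 μM ATP; JAK2 at 1 nM with 100 μM ATP. Analysis uses emission ratios.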

[2] = target: T2, wt human LRRK2, catalytic site (Homo sapiens, UniProt Q5S007); assay: TR-FRET LanthaScreen Eu Kinase Binding Assay, LRRK2 wt; details: one range stated for wt and G2019, read-out: IC50, Activity Toward LRRK2(Wt)
T2 construct: 5 nM wt human LRRK2, catalytic site; purchased ThermoFisher
How it was run: (§1)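 Emission ratios from TR-FRET were analysed per the LanthaScreen binding protocol after 1 h room-temperature incubation of compound, kinase/antibody and Kinase Tracer 236. Final levels were 5 nM LRRK2 with 2 nM Eu-anti-GST and 10 nM tracer, or 8 nM NUAK1 with 2 nM Eu-anti-His and 5 nM tracer.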

[3] = target: T3, G2019S human LRRK2, catalytic site (Homo sapiens, UniProt Q5S007, G2019S); assay: TR-FRET LanthaScreen Eu Kinase Binding Assay, LRRK2 G2019S; details: LRRK2(G2019); one range stated for wt and G2019; read-out: IC50, Activity Toward LRRK2(G2019)
T3 construct: G2019S human LRRK2, catalytic site; purchased ThermoFisher
How it was run: as §1

[4] = target: T4, wt human NUAK1, full length (Homo sapiens, UniProt O60285); assay: TR-FRET LanthaScreen Eu Kinase Binding Assay, NUAK1; details: read-out: IC50, Activity Toward NUAK1
T4 construct: 8 nM wt human NUAK1, full length (ThermoFisher/USA); purchased ThermoFisher
T4 sequence (O60285 1-661): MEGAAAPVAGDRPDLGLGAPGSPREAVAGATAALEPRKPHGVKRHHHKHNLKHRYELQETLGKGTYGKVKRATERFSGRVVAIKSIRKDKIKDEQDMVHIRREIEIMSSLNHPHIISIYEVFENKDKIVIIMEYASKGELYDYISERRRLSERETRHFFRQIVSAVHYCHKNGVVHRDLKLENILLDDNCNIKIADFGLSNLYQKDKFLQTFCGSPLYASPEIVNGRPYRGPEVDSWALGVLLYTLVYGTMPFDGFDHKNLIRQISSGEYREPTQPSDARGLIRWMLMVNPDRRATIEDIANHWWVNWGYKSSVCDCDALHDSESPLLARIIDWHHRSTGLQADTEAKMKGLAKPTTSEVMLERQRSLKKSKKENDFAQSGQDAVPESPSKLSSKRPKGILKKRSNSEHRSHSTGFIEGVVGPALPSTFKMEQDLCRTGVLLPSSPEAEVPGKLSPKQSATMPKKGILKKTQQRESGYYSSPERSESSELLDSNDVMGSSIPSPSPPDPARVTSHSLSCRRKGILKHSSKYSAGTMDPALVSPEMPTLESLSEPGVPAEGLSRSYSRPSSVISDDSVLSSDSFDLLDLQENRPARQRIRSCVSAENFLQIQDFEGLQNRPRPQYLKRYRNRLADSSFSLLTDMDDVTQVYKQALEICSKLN
How it was run: as §1

[5] = target: T5, wt human JAK1, catalytic site (Homo sapiens, UniProt P23458); assay: HTRF KinEASE assay, JAK1; assay type: biochemical; details: 2.5 μM ATP; read-out: IC50, Activity Toward JAK1
T5 construct: wt human JAK1, catalytic site; purchased ThermoFisher
How it was run: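 Two-step HTRF KinEASE assay: compound, kinase/biotinylated TK substrate and ATP were incubated at least 30 min at room temperature. Antibody plus streptavidin-XL665 was then added and plates were read after 60 min. Inhibition was derived from emission ratios according to the kit protocol.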

[6] = target: T6, wt human JAK2, catalytic site (Homo sapiens, UniProt O60674); assay: HTRF KinEASE assay, JAK2; assay type: biochemical; details: assay format not given (Z'-LYTE or HTRF KinEASE); read-out: IC50, Activity Toward JAK2
T6 construct: wt human JAK2, catalytic site; purchased SignalChem
Experimental: Basic protocol for HTRF KinEASE assay (Cisbio/FRA) inhibitor studies involved two steps: • Enzymatic step: Addition of 4 μL of test compound in corresponding DMSO dilutions, 4 μL of kinase/substrate mixture, 2 μL of ATP into 384 well small volume plates. Incubation for at least 30 minutes at room temperature. • Detection step: Addition of 5 μL antibody and 5 μL streptavidin-XL665, read plate after 60 minutes. Data analysis of emission ratios according KinEASE assay protocol.
(§2) Kinase and assay components were adjusted to final concentrations according to kit protocol. For TYK2: 2 nM wt human TYK2, catalytic site (SignalChem/CAN), 1 μM HTRF KinEASE-TK Substrate-biotin, 1 μM ATP in 1× Kinase Buffer. For JAK1: 4 nM wt human JAK1, catalytic site (ThermoFisher/USA), 1 μM HTRF KinEASE-TK Substrate-biotin, 2.5 μM ATP in 1× Kinase Buffer. For JAK2: 1 nM wt human JAK2, catalytic site (SignalChem/CAN), 1 μM HTRF KinEASE-TK Substrate-biotin, 100 μM ATP in 1× Kinase Buffer.
as §2

T3 sequence (Q5S007 970-2527 G2019S limits assumed): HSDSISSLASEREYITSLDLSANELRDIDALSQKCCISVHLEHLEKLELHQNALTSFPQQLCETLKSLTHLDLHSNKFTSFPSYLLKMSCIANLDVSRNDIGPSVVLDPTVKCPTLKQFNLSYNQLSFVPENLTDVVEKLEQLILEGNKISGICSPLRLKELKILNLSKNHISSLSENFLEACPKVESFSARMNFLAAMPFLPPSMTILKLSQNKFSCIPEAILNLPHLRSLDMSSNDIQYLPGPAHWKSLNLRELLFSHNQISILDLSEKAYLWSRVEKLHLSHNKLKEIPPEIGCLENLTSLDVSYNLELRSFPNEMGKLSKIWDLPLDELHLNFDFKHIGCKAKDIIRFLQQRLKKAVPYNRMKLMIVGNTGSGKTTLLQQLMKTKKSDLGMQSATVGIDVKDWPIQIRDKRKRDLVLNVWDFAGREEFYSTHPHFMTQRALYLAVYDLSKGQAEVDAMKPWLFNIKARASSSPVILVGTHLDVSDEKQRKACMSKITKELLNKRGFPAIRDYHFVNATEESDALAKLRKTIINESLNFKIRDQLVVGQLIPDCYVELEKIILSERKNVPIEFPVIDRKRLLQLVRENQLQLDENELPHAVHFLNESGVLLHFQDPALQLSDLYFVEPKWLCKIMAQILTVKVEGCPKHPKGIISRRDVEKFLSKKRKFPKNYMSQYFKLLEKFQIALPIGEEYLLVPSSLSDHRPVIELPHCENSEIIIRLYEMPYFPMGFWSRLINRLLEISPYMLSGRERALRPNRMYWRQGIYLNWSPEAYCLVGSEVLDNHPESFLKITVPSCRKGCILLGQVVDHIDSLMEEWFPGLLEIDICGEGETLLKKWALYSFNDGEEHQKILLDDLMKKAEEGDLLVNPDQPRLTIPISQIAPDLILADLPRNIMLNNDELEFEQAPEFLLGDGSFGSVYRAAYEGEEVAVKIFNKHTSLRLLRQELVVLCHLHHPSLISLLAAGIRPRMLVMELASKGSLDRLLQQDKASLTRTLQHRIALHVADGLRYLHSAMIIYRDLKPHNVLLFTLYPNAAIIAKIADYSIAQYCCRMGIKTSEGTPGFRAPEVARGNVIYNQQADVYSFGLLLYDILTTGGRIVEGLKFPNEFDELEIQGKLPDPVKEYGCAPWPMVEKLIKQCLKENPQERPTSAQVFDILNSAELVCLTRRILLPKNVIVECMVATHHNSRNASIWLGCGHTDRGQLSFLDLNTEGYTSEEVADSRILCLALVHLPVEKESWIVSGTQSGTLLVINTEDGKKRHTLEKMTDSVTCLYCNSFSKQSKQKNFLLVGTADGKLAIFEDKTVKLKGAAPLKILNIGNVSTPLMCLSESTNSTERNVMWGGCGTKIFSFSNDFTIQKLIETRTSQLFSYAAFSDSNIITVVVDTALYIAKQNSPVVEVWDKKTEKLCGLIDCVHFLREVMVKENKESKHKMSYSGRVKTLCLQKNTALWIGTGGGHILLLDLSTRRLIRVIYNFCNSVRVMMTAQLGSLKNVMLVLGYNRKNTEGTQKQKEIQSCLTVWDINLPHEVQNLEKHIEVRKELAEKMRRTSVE
T5 sequence (P23458 875-1153 limits assumed): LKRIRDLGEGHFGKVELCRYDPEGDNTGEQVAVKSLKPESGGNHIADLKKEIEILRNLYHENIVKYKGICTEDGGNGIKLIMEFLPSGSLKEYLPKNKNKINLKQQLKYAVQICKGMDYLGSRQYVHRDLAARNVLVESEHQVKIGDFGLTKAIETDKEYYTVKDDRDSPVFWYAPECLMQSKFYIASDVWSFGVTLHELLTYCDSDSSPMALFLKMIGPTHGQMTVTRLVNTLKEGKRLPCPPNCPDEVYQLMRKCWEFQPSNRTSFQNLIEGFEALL
T2 sequence (Q5S007 970-2527 limits assumed): as the sequence (Q5S007 970-2527 G2019S limits assumed) above, with S1050G counted along it
T6 sequence (O60674 849-1124 limits assumed): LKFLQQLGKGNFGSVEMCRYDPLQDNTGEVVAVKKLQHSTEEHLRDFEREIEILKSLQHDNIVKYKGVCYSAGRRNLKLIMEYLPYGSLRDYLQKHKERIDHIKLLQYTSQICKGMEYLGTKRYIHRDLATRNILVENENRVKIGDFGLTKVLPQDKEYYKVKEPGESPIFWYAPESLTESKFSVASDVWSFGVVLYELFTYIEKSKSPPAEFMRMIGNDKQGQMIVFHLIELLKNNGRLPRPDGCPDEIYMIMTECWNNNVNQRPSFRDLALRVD

Structure (SMILES) | IC50 [1] | IC50 [2] | IC50 [3] | IC50 [4] | IC50 [5] | IC50 [6]
NC(=O)c1nn(-c2c(Cl)ccc(F)c2Cl)cc1Nc1ccc(C(=O)N2CCOCC2)cc1 [compound 416, 1-(2,6-dichloro-3-fluorophenyl)-4-((4-(morpholine-4-carbonyl)phenyl)amino)-1H-pyrazole-3-carboxamide] | < 10 nM | 100 to 1000 nM | 100 to 1000 nM | 100 to 1000 nM | 10 to 100 nM | 100 to 1000 nM
CC(C)n1ncnc1-c1ccc(Nc2cn(-c3c(F)cccc3Cl)nc2C(N)=O)cc1 [compound 211, 1-(2-chloro-6-fluorophenyl)-4-((4-(1-isopropyl-1H-1,2,4-triazol-5-yl)phenyl)amino)-1H-pyrazole-3-carboxamide] | 10 to 100 nM | 10 to 100 nM | 10 to 100 nM | 100 to 1000 nM | 100 to 1000 nM | 100 to 1000 nM
CN1CCN(C(=O)c2ccc(Nc3cn(-c4c(F)cccc4Cl)nc3C(N)=O)cc2)CC1 [compound 36, 1-(2-chloro-6-fluorophenyl)-4-((4-(4-methylpiperazine-1-carbonyl)phenyl)amino)-1H-pyrazole-3-carboxamide] | < 10 nM | 10 to 100 nM | 10 to 100 nM | 100 to 1000 nM | 10 to 100 nM | 100 to 1000 nM
N#Cc1cccc(F)c1-n1cc(Nc2ccc(C(=O)N3CCOCC3)cc2)c(C(N)=O)n1 [compound 454, 1-(2-cyano-6-fluorophenyl)-4-((4-(morpholine-4-carbonyl)phenyl)amino)-1H-pyrazole-3-carboxamide] | < 10 nM | 100 to 1000 nM | 100 to 1000 nM | 100 to 1000 nM | 10 to 100 nM | 100 to 1000 nM
NC(=O)c1nn(-c2c(F)cccc2Cl)cc1Nc1ccc(-c2nnc3n2CCOC3)cc1 [compound 62, 1-(2-chloro-6-fluorophenyl)-4-((4-(6,8-dihydro-5H-[1,2,4]triazolo[3,4-c][1,4]oxazin-3-yl)phenyl)amino)-1H-pyrazole-3-carboxamide] | < 10 nM | 10 to 100 nM | 10 to 100 nM | 100 to 1000 nM | 100 to 1000 nM | 100 to 1000 nM
NC(=O)c1nn(-c2c(F)cccc2Cl)cc1Nc1ccc(-c2nnc3n2CCCC3)cc1 [compound 58, 1-(2-chloro-6-fluorophenyl)-4-((4-(5,6,7,8-tetrahydro-[1,2,4]triazolo[4,3-a]pyridin-3-yl)phenyl)amino)-1H-pyrazole-3-carboxamide] | < 10 nM | 10 to 100 nM | 10 to 100 nM | 100 to 1000 nM | 10 to 100 nM | 100 to 1000 nM
NC(=O)c1nn(-c2c(Cl)cccc2Cl)cc1Nc1ccc(-c2nnc3ccccn23)cc1 [compound 333, 4-((4-([1,2,4]triazolo[4,3-a]pyridin-3-yl)phenyl)amino)-1-(2,6-dichlorophenyl)-1H-pyrazole-3-carboxamide] | < 10 nM | 100 to 1000 nM | 100 to 1000 nM | 100 to 1000 nM | 10 to 100 nM | 100 to 1000 nM
NC(=O)c1nn(-c2c(Cl)cccc2Cl)cc1Nc1ccc(-c2nncn2C2CC2)cc1 [compound 206, 4-((4-(4-cyclopropyl-4H-1,2,4-triazol-3-yl)phenyl)amino)-1-(2,6-dichlorophenyl)-1H-pyrazole-3-carboxamide] | 10 to 100 nM | 100 to 1000 nM | 100 to 1000 nM | 100 to 1000 nM | 10 to 100 nM | 100 to 1000 nM
NC(=O)c1nn(-c2c(Cl)cccc2Cl)cc1Nc1ccc(-c2nncn2CC(F)F)cc1 [compound 212, 1-(2,6-dichlorophenyl)-4-((4-(4-(2,2-difluoroethyl)-4H-1,2,4-triazol-3-yl)phenyl)amino)-1H-pyrazole-3-carboxamide] | < 10 nM | 100 to 1000 nM | 100 to 1000 nM | 100 to 1000 nM | 10 to 100 nM | 100 to 1000 nM
CCn1cnnc1-c1ccc(Nc2cn(-c3c(F)cccc3Cl)nc2C(N)=O)cc1 [compound 207, 1-(2-chloro-6-fluorophenyl)-4-((4-(4-ethyl-4H-1,2,4-triazol-3-yl)phenyl)amino)-1H-pyrazole-3-carboxamide] | < 10 nM | 100 to 1000 nM | 100 to 1000 nM | 100 to 1000 nM | 10 to 100 nM | 100 to 1000 nM
CC(C)n1cnnc1-c1ccc(Nc2cn(-c3c(Cl)cccc3Cl)nc2C(N)=O)cc1 [compound 205, 1-(2,6-dichlorophenyl)-4-((4-(4-isopropyl-4H-1,2,4-triazol-3-yl)phenyl)amino)-1H-pyrazole-3-carboxamide] | 10 to 100 nM | 100 to 1000 nM | 100 to 1000 nM | 100 to 1000 nM | 10 to 100 nM | 100 to 1000 nM
Cn1nnnc1-c1ccc(Nc2nn(-c3c(Cl)cccc3Cl)nc2C(N)=O)cc1 [compound 104] | < 10 nM |  |  | 100 to 1000 nM | 10 to 100 nM | 100 to 1000 nM
NC(=O)c1nn(-c2c(Cl)cccc2Cl)nc1Nc1ccc(-c2nnn[nH]2)cc1 [compound 103, 2-(2,6-Dichloro-phenyl)-5-[4-(1H-tetrazol-5-yl)-phenylamino]-2H-[1,2,3]triazole-4-carboxylic acid amide] | 10 to 100 nM |  |  | 100 to 1000 nM | 10 to 100 nM | 100 to 1000 nM
NC(=O)c1nn(-c2c(Cl)cccc2Cl)nc1Nc1ccc(C(=O)N2CC[C@@H](F)C2)cc1 [compound 106, 2-(2,6-Dichloro-phenyl)-5-[4-((R)-3-fluoro-pyrrolidine-1-carbonyl)-phenylamino]-2H-[1,2,3]triazole-4-carboxylic acid amide] | < 10 nM |  |  | 100 to 1000 nM | 10 to 100 nM | 100 to 1000 nM
NC(=O)c1nn(-c2c(Cl)cccc2Cl)nc1Nc1ccc(C(=O)N2CCOCC2)cc1 [compound 101, 2-(2,6-Dichloro-phenyl)-5-[4-(morpholine-4-carbonyl)-phenylamino]-2H-[1,2,3]triazole-4-carboxylic acid amide] | < 10 nM |  |  | 100 to 1000 nM | < 10 nM | 100 to 1000 nM
CN(C)[C@H]1CCN(C(=O)c2ccc(Nc3nn(-c4c(Cl)cccc4Cl)nc3C(N)=O)cc2)C1 [compound 105, 2-(2,6-Dichloro-phenyl)-5-[4-((S)-3-dimethylamino-pyrrolidine-1-carbonyl)-phenylamino]-2H-[1,2,3]triazole-4-carboxylic acid amide] | < 10 nM |  |  | 100 to 1000 nM | < 10 nM | 100 to 1000 nM
